Results reported in PubChem BioAssay (NCI).
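Grown in 96-well plates, cells were treated for 48 hours with each compound at five concentrations. Insufficient inhibition: endpoint recorded as highest concentration tested. GI50: concentration for 50% inhibition of growth. TGI denotes the concentration required for complete inhibition of growth.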

Legend:
Test in all cases: NCI-60 cell line screen, 48 h
[1] = system: U251 CNS
[2] = system: SF-295 CNS
[3] = system: UO-31 renal
[4] = system: SF-539 CNS
[5] = system: T-47D breast
[6] = system: DU-145 prostate
[7] = system: SK-MEL-5 melanoma
[8] = system: HCT-116 colon
[9] = system: MDA-N
[10] = system: MCF7 breast
[11] = system: M14 melanoma
[12] = system: COLO 205 colon
[13] = system: BT-549 breast
[14] = system: SK-MEL-2 melanoma
[15] = system: RXF 393 renal
[16] = system: SW-620 colon
[17] = system: RPMI-8226 leukemia
[18] = system: IGROV1 ovarian
[19] = system: A498 renal

Structure (SMILES) | TGI [1] | TGI [2] | TGI [3] | TGI [4] | TGI [5] | TGI [6] | TGI [7] | TGI [8] | TGI [9] | TGI [10] | TGI [11] | TGI [12] | TGI [13] | TGI [14] | TGI [15] | TGI [16] | TGI [17] | TGI [18] | TGI [19] | GI50 [18]
Cn1c2ccccc2c(=NNc2ccc(S(=O)(=O)N=C(N)N)cc2)c2ccccc21 | 21.6 µM | 31.1 µM | 22 µM | 27.3 µM | 35.6 µM | 32.3 µM | 20.1 µM | 17 µM | 25.1 µM | 12.9 µM | 30.1 µM | 18.7 µM | 29.1 µM | 28 µM | 10.8 µM | 21.1 µM | 43.4 µM | 28.5 µM |  | 
CCCCCCC(O)C(=O)OC1C2C(CC1(C)C)C(O)C13OC1C(O)C1(CO1)[C@@]23C (stereo partly drawn) | > 100 µM | > 100 µM | > 100 µM |  | > 100 µM | > 100 µM | 40.9 µM | > 100 µM | > 100 µM | > 100 µM | > 100 µM | > 100 µM | > 100 µM |  | 59.4 µM |  | > 100 µM | > 100 µM |  | 
c1cc2cc(Cc3ccc4[nH]ccc4c3)ccc2[nH]1 | 38.5 µM | 78.9 µM | 34.6 µM | 32.9 µM | 53.7 µM | 56.2 µM | 30 µM | 33.1 µM | 26.5 µM | 32.3 µM | 37.7 µM | 33.9 µM | 45.8 µM | 44.3 µM | 37.7 µM | 93.3 µM |  | 39.4 µM | 37.3 µM | 
O=c1[nH]nc(-c2ccccc2)n1-n1cccc1 | > 100 µM | > 100 µM | > 100 µM |  | > 100 µM | > 100 µM | > 100 µM | > 100 µM | > 100 µM | > 100 µM | > 100 µM | > 100 µM | > 100 µM | > 100 µM | > 100 µM | > 100 µM | > 100 µM | > 100 µM | > 100 µM | 
CCOC(=O)NC(C(F)(F)F)(C(F)(F)F)P(=O)(OCC)OCC | 79.5 µM | > 100 µM | 85.5 µM |  | > 100 µM | > 100 µM |  | > 100 µM | > 100 µM | > 100 µM | > 100 µM | > 100 µM | > 100 µM |  | 44.1 µM | > 100 µM | 87.4 µM | > 100 µM | > 100 µM | 
CCCC1(N2C(=O)c3ccc4c5c(ccc(c35)C2=O)N(C2(CCC)CCCCC2)C4=O)CCCCC1 | > 100 µM | > 100 µM | > 100 µM | > 100 µM | > 100 µM | > 100 µM | > 100 µM | > 100 µM | > 100 µM | > 100 µM | > 100 µM | > 100 µM |  | > 100 µM | > 100 µM | > 100 µM | > 100 µM |  | > 100 µM | 
[O-][N+]1=C(c2ccccc2)/C(=C2/C(c3ccccc3)=[N+]([O-])c3ccccc32)Cc2ccccc21 | 38.7 µM | 42.9 µM | 28.5 µM | 56.4 µM | 45.8 µM | 63.8 µM | 35.4 µM | 31.4 µM | 31.7 µM | > 100 µM | 53.7 µM | 34.7 µM |  | 36.6 µM | 53.1 µM | 59.2 µM | 52 µM | 35.2 µM | 21.1 µM | 
COC(=O)N1C2C(C[C@@]1(C)C(=O)OC)c1ccccc1N2S(=O)(=O)c1ccccc1 (stereo partly drawn) |  | > 100 µM | > 100 µM |  | > 100 µM | > 100 µM | > 100 µM | > 100 µM | > 100 µM | > 100 µM | > 100 µM | > 100 µM | > 100 µM | > 100 µM | > 100 µM | > 100 µM | > 100 µM | > 100 µM |  | 
CC(=O)OC1CC2C(=O)CC1(C)C2(C)C (stereo not drawn) | > 100 µM | > 100 µM | > 100 µM | > 100 µM | > 100 µM | > 100 µM | > 100 µM | > 100 µM | > 100 µM | > 100 µM | > 100 µM | > 100 µM |  | > 100 µM | > 100 µM | > 100 µM | > 100 µM | > 100 µM | > 100 µM | > 100 µM
C[n+]1ccc2/c(=C\C#N)c3ccccc3n21 | 72.8 µM | > 100 µM | > 100 µM |  | 32.7 µM | 46.4 µM | 35.6 µM | > 100 µM | > 100 µM | 65 µM | > 100 µM | 45.4 µM | 52.8 µM | 89.9 µM | > 100 µM | > 100 µM | 31.3 µM | 78.3 µM |  | 
CCN(CC)CCC(=O)Nc1ccc2sc3ccccc3c(=O)c2n1 | 28.8 µM | 48.9 µM | 22.2 µM | 33.4 µM | 45.9 µM | > 100 µM | 33.8 µM | 29.4 µM | 30.3 µM | 36.5 µM | 28.1 µM | 29.1 µM | 36.1 µM | 45.8 µM |  | 33.9 µM | 43.5 µM | 35.8 µM |  | 
CC(=O)c1ccc(Nc2nc3ccccc3c3occc23)cc1 | > 100 µM | 41.1 µM | 96.4 µM | 53.4 µM | 29.9 µM | 75 µM | 28.2 µM | 27.8 µM | 47.7 µM | 56.6 µM | 36.5 µM | 27.6 µM | 64.4 µM | 48.6 µM |  |  | 29.6 µM | 36.2 µM | 12.3 µM | 
Cc1ccc2nc(-c3nccn3C)cc(C(=O)NC(C)CN(C)C)c2c1 (stereo not drawn) | > 100 µM |  | > 100 µM | > 100 µM | > 100 µM | > 100 µM | > 100 µM | > 100 µM | > 100 µM | > 100 µM | > 100 µM | > 100 µM | > 100 µM | > 100 µM | > 100 µM | > 100 µM |  | > 100 µM | > 100 µM | 
